Experimental data taken from patent EP1268545B1, “POTASSIUM CHANNEL PROTEIN KCNQ5, A TARGET FOR DISEASES OF CENTRAL NERVOUS SYSTEM AND CARDIOVASCULAR SYSTEM” (priority 2000, dated 2001).
pIC50: −log10 of the molar value.

Key:
[1] = test system: human KCNQ5 (hKCNQ5) potassium channel, SEQ ID No 2; experiment: Two-electrode voltage-clamp of KCNQ5 currents in Xenopus oocytes injected with cRNA; format: cell-based; details: 3s depolarizing step from -100 mV to 0 mV
Procedure: Xenopus laevis oocytes were obtained from tricaine anaesthetized animals. Ovaries were collagenase treated (1 mg/ 1 ml, Worthington, type II) in OR 2 solution (NaCl 82.5 mM, KCl 2 mM, MgCl2 1 mM, HEPES 5 mM, pH 7.4) for 120 min and subsequently stored in recording solution ND-96 (NaCl 96 mM, KCI 2 mM, CaCl2 1.8 mM, MgCl2 1 mM, HEPES 5 mM, pH 7.4) with additional NaPyruvate (275 mg/l), Theophylline (90 mg/l) and Gentamycin (50 mg/l) at 18°C. […] Standard two-electrode voltage-clamp recordings were performed at room temperature with a Turbo Tec 10CD (NPI) amplifier, an ITC-16 interface combined with Pulse software (HEKA) and Origin for data aquisition on Pentium 11 PC. Macroscopic currents were recorded 2-4 days after injection. All fitting procedures were based on the simplex algorithm. Student's t test was used to test for statistical significance, which was assumed if P<0.05 and indicated by *.
However, it can be described by a biexponential function. […] KCNQ5 deactivation was well fitted to a second order exponential function. The two components of deactivation were determined at a repolarizing voltage of -100 mV following a 3s depolarizing step to +40 mV.

[2] = test system: KCNQ1; details: cited from earlier work
[3] = test system: KCNQ3; details: at 10µM; cited from earlier work
[4] = test system: KCNQ2; details: at 10µM; cited from earlier work

Compound	block of KCNQ5 currents ([1]; at 100 µM)	block of KCNQ1 ([2]; at 100 µM)	inhibition of KCNQ3 [3]	reduction of KCNQ5 current ([1]; at 30 µM)	pIC50 ([2]; read-out: IC50 (block of KCNQ1))	inhibition of KCNQ2 [4]
CCS(=O)(=O)N(C)[C@H]1c2cc(C#N)ccc2OC(C)(C)[C@@H]1O (racemic) [chromanol 293B]	45%	80%	–	–	–	–
CCCCCCC[N+](CC)(CC)CCCCc1ccc(Cl)cc1 [Clofilium]	–	–	30%	40%	> 5.00	little inhibition
